Assay results published in patent publication US5792635A, “Method of inhibiting the sodium/proton exchanger NHE3 and method of inhibiting growth by administering squalamine” (priority 1995, dated 1998).
“Also recorded” adds a separate entry of the source.

Tests used:
[1] = system: Xenopus tadpoles; experiment: Tadpole assay; details: for observed response in tadpole: stage 59-60 Xenopus
[2] = system: Human ovarian carcinoma SKOV3; experiment: Cancer cells inhibited in vitro; format: cell-based
Method: (§1) As set forth in Table 7 below, all malignant tumors evaluated in tissue culture, endothelial cells and vascular smooth muscle cells were sensitive to inhibition. Thus, compound 1436 has application in the control of growth factor dependent proliferation of many types of tissue.
Using the assay described above, the anticancer effects of compound 1437 against several cancer lines was assessed.

[3] = Effect on fasting blood glucose in mice; format: in vivo, mouse (CD-1); details: intravenous; 1436 in D5W, 1437 in water
Method: To study the effect of steroid administrator or the NHE responsible for secretion of insulin, several of the aminosterols from shark liver were administered to fasting mice. Male CD-1 mice were assigned to one of four treatment groups. Whole blood glucose was tested using glucometer (Lifescan Glucometer II and One Touch test strips). Statistical analysis was via one-way analysis of variance (ANOVA) followed by subsequent Bonferonni's t-test.

[4] = system: NHE1β; details: nucleated erythrocytes; cited from earlier work
[5] = system: Xenopus tadpoles; details: in vivo
[6] = system: vitelline capillaries of 3- to 5-day chick embryo; experiment: Chick embryo vitelline capillary regression assay; format: in vivo; details: for vitelline capillary regression, potency in words: chick embryo capillary bed
Method: Using the chick embryo vitelline capillaries assay, compounds were tested for their ability to induce capillary regression. Each compound was applied in 0.1 ml of 15% Ficol 400 and PBS onto the embryo, and vascular regression was assessed after 60 minutes.
The 3-day chick embryo consists of an embryonic disc from which numerous vessels emerge and return, forming a "figure 8"-shaped structure--the embryo in the center with vascular loops extending outward over both poles. […] Following a lag period of around 15 minutes, the constriction of continuity between capillary and secondary vessels, generally on the "venous" side, was observed. Continued pulsatile blood flow progressed, resulting in a "swelling" of the blind tube, followed by a pinching off of the remaining connection and formation of an enclosed vascular sac resembling a "blood island." This process progressed until only the largest vessels remained intact.

[7] = system: NHE; experiment: Assay for direct inhibition of NHE; format: cell-based; details: relative to squalamine
From the text: Moreover, other aminosterols have shown anti-angiogenic activity. Compounds were subjected to a various assays, including the chick embryo capillary regression assay, the tadpole assay, the assay for inhibition of endothelial cord formation, and the assay for direct inhibition of NHE, as described above, to determine their utilities. As evident from the above data, correlation among the results from the chick, tadpole and in vitro inhibition of endothelial cell cord formation assays is excellent.
Through the application of these assays, compound 319 emerged as an attractive alternative to squalamine. […] Further properties of compound 319 are discussed below.

[8] = system: LLC; experiment: LLC MTT assay (Table II); format: cell-based; details: Lewis lung carcinoma, read-out: Minimum Effective Concentration, LLC MTT
[9] = system: human melanoma; experiment: Effect on growth of human melanoma, time course (FIG. 17); format: cell-based
[10] = system: NHE5; experiment: NHE isoform selectivity inferred from tadpole and chick embryo assays
[11] = system: human coronary artery smooth muscle; experiment: Proliferation of human coronary artery smooth muscle in vitro; format: cell-based; details: FIG. 15
From the text: Aminosterols of the invention may also have utility in inhibiting the growth factor mediated proliferation of smooth muscle within the artery. Following coronary angioplasty, reocclusion commonly occurs, secondary to reparative proliferation of the vascular smooth muscle within the wall of the surgically manipulated blood vessel. This process generally takes place over the course of 7-10 days. To evaluate whether an agent could prevent the growth factor mediated proliferation of smooth muscle within the artery, compound 1436 was evaluated in vitro for its effect on the proliferation of human coronary artery smooth muscle. Results for compound 1436 are shown in FIG. 13, and those for squalamine are shown in FIG. 14, with FIG. 15 being a composite logarithmic plot.

[12] = system: Murine B16 melanoma; experiment: Cancer cells inhibited in vitro; format: cell-based; details: 10 μg/ml
From the text: as §1

[13] = system: Murine L1210 leukemia; experiment: Cancer cells inhibited in vitro; format: cell-based; details: 10 μg/ml
From the text: as §1

[14] = system: Human melanoma WM 1617; experiment: Cancer cells inhibited in vitro; format: cell-based; details: 10 μg/ml
From the text: as §1

[15] = system: Human colon carcinoma SW948; experiment: Cancer cells inhibited in vitro; format: cell-based; details: 10 μg/ml
From the text: as §1

[16] = system: Human colon carcinoma HT29; experiment: Cancer cells inhibited in vitro; format: cell-based; details: 10 μg/ml
From the text: as §1

[17] = system: Lewis lung carcinoma; experiment: Cancer cells inhibited in vitro; format: cell-based; details: 10 μg/ml
From the text: as §1

[18] = Effect on arterial resistance in the rat after i.v. administration; format: in vivo
Method: A 200-g rat was catheterized in the right carotid artery, and the compound was introduced over a ten-second period to a total dosage of 5 mg/kg. Within 30 seconds, the mean arterial pressure had fallen from about 100 mm Hg to about 70 mm Hg, with a marked reduction in pulse pressure from about 40 mm to about 10 mm. […] If cardiac output was basically unaffected, reduction in blood pressure would have resulted principally from a reduction in system resistance.
At that time, 40 μg of noradrenaline was introduced.

[19] = system: human T-cells; experiment: Inhibition of PHA-stimulated human lymphocytes; format: cell-based; details: Homo sapiens, T-cell; 10 μg/ml; read-out: inhibition of blast transformation
From the text: Results are tabulated below.

[20] = Effect on growth and weight gain of growing mice; format: in vivo, mouse (C57B)
Method: Animals were dosed QTD (i.p.) starting on Day 1. […] Animals receiving 5 mg/kg QTD experienced about a 50% reduction in growth, compared to untreated controls, while animals receiving 1 mg/kg QTD were affected by about 10%. […] They appeared very much like hypophysectamized animals might appear.

[21] = system: B16 melanoma; experiment: Synergistic inhibition of tumor growth, B16 melanoma in mice; format: in vivo, mouse; details: squalamine 15 mg/kg/day; compound 1436 tolerable schedule
Method: Based on the idea that tumor growth involves both the clonal expansion of a malignant cell along with the development of a supporting vascular supply, a combination of compound 1436 with squalamine was tested to determine whether it would achieve a synergistic effect on solid tumor growth. This concept was evaluated in the B16 melanoma model.
Animals were implanted with B16 melanoma followed by treatment with compound 1436 or 1256 administered in a combined schedule or separately. […] Thus, a combination of these two compounds achieves a therapeutic benefit in tumors dependent on neovascularization that may prevent metastatic spread.

[22] = system: L1210 lymphoblastic leukemia cells; experiment: Mouse model of leukemia (L1210), survival and hematological profile; details: highest dose (10 mg/kg every 3 days i.p.); FIG. 11
From the text: C57B mice were inoculated with L1210 lymphoblastic leukemia cells at an inoculum that causes leukemia in 100% of animals.

[23] = system: human umbilical venous endothelial cells; experiment: Non-transformed cells inhibited in vitro; format: cell-based; details: 10 μg/ml
From the text: as §1

[24] = system: bovine pulmonary endothelial cells; experiment: Non-transformed cells inhibited in vitro; format: cell-based; details: 10 μg/ml
From the text: as §1

[25] = system: Human coronary artery smooth muscle cells; experiment: Non-transformed cells inhibited in vitro; format: cell-based; details: 10 μg/ml
From the text: as §1

[26] = system: Human microvascular endothelial cells; experiment: Non-transformed cells inhibited in vitro; format: cell-based; details: 10 μg/ml
From the text: as §1

For CC(C)C(CO)(CC[C@@H](C)[C@H]1CC[C@H]2[C@@H]3[C@H](O)C[C@H]4C[C@@H](NCCCNCCCCN)CC[C@]4(C)[C@H]3CC[C@]12C)OS(=O)(=O)O (single isomer, unassigned) [Compound 1437], the “observed response in tadpole” value ([1]; 10 μg/ml) was “Epithelium covering the embryonic portions of the animal, such as the tail and antennae, began to slough off in sheets; also recorded: Animal was otherwise active, with little tissue breakdown noted; also recorded: the larval skin was observed to shed off in a sheet”, the anticancer activity ([2]; SKOV3) was “anticancer activity” and the hyperglycemic response [3] was “caused hyperglycemia in mice”.

For N=C(N)NC(=O)c1nc(Cl)c(N)nc1N [Amiloride], the “inhibition of NHE1β” value [4] is given as “inhibited by high concentrations of amiloride”.

With C[C@H](CCC(=O)O)[C@H]1CC[C@H]2[C@@H]3CC[C@H]4C[C@@H](NCCCNCCCCN)CC[C@]4(C)[C@H]3CC[C@]12C [Compound 319] the “observed response in tadpole” value ([1]; 10 μg/ml) was “common vascular occlusive effect”, the CNS effects [5] was “no CNS effects” and the “activity in vitelline capillary regression assay” value ([6]; Table 5) was “especially active”. The “potency as an NHE inhibitor” value [7] was “superior to squalamine”.

With CC(C)CCC[C@@H](C)[C@H]1CC[C@H]2[C@@H]3CC[C@H]4C[C@@H](NCCCNCCCCNCCCN)CC[C@]4(C)[C@H]3CC[C@]12C [Compound 353] the “functional similarity in tadpole assay” value ([1]; Xenopus tadpole assay) was “effects like those produced by compound 1436”, the minimal effective concentration [8] was 1.9 µg/mL and the “vitelline capillary regression, potency in words” value [6] was “no effect on the chick embryo capillary bed”. The “effect on melanoma growth, time dependence” value ([9]; FIG. 17A, less effect within first 12 hours) was “most pronounced over 48 hours”, the “mode of cell death” value ([9]; cells exposed to compound 353) was “apoptotic cell death has been induced” and the “NHE5 versus NHE3 selectivity” value [10] was “inhibits NHE5 to a greater extent than NHE3”.

For CC(C)[C@@H](CC[C@@H](C)[C@H]1CC[C@H]2[C@@H]3[C@H](O)C[C@H]4C[C@@H](NCCCNCCCCNCCCN)CC[C@]4(C)[C@H]3CC[C@]12C)OS(=O)(=O)O [Compound 1436], the “suppression of growth of human coronary artery smooth muscle” value [11] was “suppress in vitro the growth of human coronary artery smooth muscle”, the “death / lethality time” value ([1]; 10 μg/ml) was “about 2 hours” and the “observed response in tadpole” value ([1]; 10 μg/ml) was “common vascular occlusive effect; also recorded: Gradual reduction in overall activity. Heart beat remained strong, suggesting nervous system depression; also recorded: Melanocytes over head and tail began to swell, first exhibiting visibly distinct nuclei, followed by rupture into fragments; also recorded: dramatic disruption of melanocytes over its head, trunk, and tail, along with depression of its nervous system; also recorded: No effects are observed on epithelial cell integrity, vascular flow, erythrocyte volume, tissue integrity, muscle fiber striation, or GI tract activity”. For the same compound, the inhibited in vitro ([2]; 10 μg/ml) was “INHIBITED”, the inhibited in vitro [12] was “INHIBITED” and the inhibited in vitro [13] was “INHIBITED”. The inhibited in vitro [14] was “INHIBITED”, the inhibited in vitro [15] was “INHIBITED” and the inhibited in vitro [16] was “INHIBITED”. The inhibited in vitro [17] was “INHIBITED”, the reversibility by noradrenaline ([18]; 40 μg noradrenaline at 30 minutes) was “readily reversible by standard pharmacological practice” and the “duration of blood pressure effect followed without significant change” value ([18]; 5 mg/kg i.v.) was 30 min. The inhibition at 10 µg/mL [19] was > 75%, the “growth inhibition of mice” value ([20]; 10 mg/kg QTD i.p., after 6 doses, about 1 month) was “almost completely inhibited” and the apparent health ([20]; C57B mice, 1-10 mg/kg QTD i.p.) was “all were active, normally proportioned, not-cachectic, and in excellent apparent clinical health”. The “suppression of linear growth and weight gain” value ([20]; normal growing mice, i.p.) was “suppresses both linear growth and weight gain in growing mice in a dose-dependent fashion”, the “effect of single agent versus combination” value [21] was “Neither administration of squalamine at 15 mg/kg/day nor compound 1436 alone in a tolerable schedule could achieve this effect” and the “survival in L1210 leukemia mice” value [22] was “significant prolongation of life”. For the same compound, the “vitelline capillary regression, potency in words” value [6] was “about the same potency as squalamine”, the inhibited in vitro [23] was “INHIBITED” and the inhibited in vitro [24] was “INHIBITED”. The inhibited in vitro [25] was “INHIBITED”, the inhibited in vitro [26] was “INHIBITED” and the hyperglycemic response [3] was “caused hyperglycemia in mice”.
